Test results reported in PubChem BioAssay AID1645864 (Buhrlage Lab, Dana-Farber Cancer Institute and Novartis …, 2021).
pIC50: −log10 of the molar value. The source made the active and inactive calls.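 The calls were made as follows: active = maximal inhibition of USP17 at or above 30% in the confirmation dose-response, a value not among the printed readouts; inactive = the rest.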

Molecular target: Ubiquitin carboxyl-terminal hydrolase 17-like protein 5 (Homo sapiens) (UniProt A8MUK1)
Experiment: ubiquitin-specific protease 17 DUB inhibitors, concentration-effect assay, cell-free, verification of initial screening actives (AID 1645864)
Conditions: purified USP17, ubiquitin-rhodamine cleavage fluorescence, 3 h

Chain of Ubiquitin carboxyl-terminal hydrolase 17-like protein 5 (Homo sapiens) (A8MUK1 whole entry, looked up): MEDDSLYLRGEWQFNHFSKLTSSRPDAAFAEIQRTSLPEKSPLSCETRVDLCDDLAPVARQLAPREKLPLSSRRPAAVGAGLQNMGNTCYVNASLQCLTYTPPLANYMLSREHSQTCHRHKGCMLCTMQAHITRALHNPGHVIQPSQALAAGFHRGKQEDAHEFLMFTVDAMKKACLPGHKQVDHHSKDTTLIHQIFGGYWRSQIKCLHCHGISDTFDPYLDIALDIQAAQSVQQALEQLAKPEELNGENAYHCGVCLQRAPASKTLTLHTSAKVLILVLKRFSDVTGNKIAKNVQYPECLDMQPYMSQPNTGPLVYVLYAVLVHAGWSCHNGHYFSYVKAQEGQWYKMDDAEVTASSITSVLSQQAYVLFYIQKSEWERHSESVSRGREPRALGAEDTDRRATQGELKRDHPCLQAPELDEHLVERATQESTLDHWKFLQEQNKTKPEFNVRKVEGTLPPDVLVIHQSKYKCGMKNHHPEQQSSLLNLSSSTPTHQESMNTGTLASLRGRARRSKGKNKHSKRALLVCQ

| Compound | pIC50 | IC50 |
| --- | --- | --- |
| Cc1cc(C)n(-c2ccc(C(=O)Nc3cccc(S(=O)(=O)N4CCCC4)c3)cc2)n1 | 4.64 | – |
| O=C(Nc1cccc(Cl)c1)c1ncn2c1CNS(=O)(=O)c1ccccc1-2 | 5.22 | – |
| Cc1ccc(C(=O)NCc2ccc(C(=O)Nc3cccc(C)c3)o2)cc1 | 4.49 | – |
| CCOC(=O)c1cc2c(ccn2C)n1CC(=O)N1CCC(C)CC1 | – | > 50 µM (inactive) |
| CCCC(=O)Nc1nc2ccc(CCC(=O)NCc3ccc(F)cc3)cc2s1 | 4.60 | – |
| CC(C)N1CC2CN(C(=O)c3ccccc3)CCN2Cc2ccccc21 (stereo not drawn) | – | > 50 µM (inactive) |
| Cc1ccc(NC(=O)Cn2cc(S(=O)(=O)N3CCCC3)ccc2=O)cc1 | 4.71 | – |
| COc1ccc(N(CC(=O)NC2CCCCC2)C(=O)c2ccc(-c3ccccc3)[nH]2)cc1OC | 5.52 | – |
| C=C1CCC2[C@](C)(CCC[C@]2(C)C(=O)OC)[C@H]1CCc1ccoc1CNC(C)C (stereo partly drawn) | – | > 50 µM (inactive) |
| Cc1cccc(C(=O)N2CCc3cc(-c4nc(NC(=O)CNc5ccccc5)sc4C)ccc32)c1 | – | > 50 µM (inactive) |
| CCc1ccc(-c2nc(SCC(=O)Nc3ccc4[nH]c(=O)[nH]c4c3)n[nH]2)cc1 | 4.56 | – |
| COc1cc(NC(=O)c2cc(CN3CCOCC3)on2)cc(OC)c1 | – | > 50 µM (inactive) |
| COc1ccc(CC(=O)Nc2cccc(-c3nc4ncccc4o3)c2)cc1OC | – | > 50 µM (inactive) |
| O=C(CCC1CCCCC1)Nc1ccccc1C(=O)N1CCOCC1 | – | > 5 µM (inactive) |
| COc1ccc(OC)c(-c2cn3ccn(-c4ccc5c(c4)CCC5)c(=O)c3n2)c1 | – | > 50 µM (inactive) |
| COc1ccc(Cl)cc1-n1nnc(C(=O)N2CCc3ccccc3C2)c1C | – | > 50 µM (inactive) |
| COc1ccc(CCn2cnc3c([nH]c4ccccc43)c2=O)cc1 | 5.53 | – |
| CS(=O)(=O)N1CCCc2cc(C(=O)Nc3ccc4c(c3)OCO4)ccc21 | – | > 50 µM (inactive) |
| N#Cc1ccc(-c2ccc(OCC(=O)Nc3ccc4c(c3)OCO4)cc2)cc1 | 5.61 | – |
| COc1ccccc1-c1nc2c3c(ncn2n1)Oc1c(c(C)nn1-c1ccccc1)C3c1cccnc1 (stereo not drawn) | 5.25 | – |
| COc1cc(NC(=O)c2ccc3c(c2)OCO3)ccc1-c1cc2ccccc2oc1=O | 6.17 | – |
| COc1cccc(NC(=O)CCc2c(C)nn(-c3cc(N4CCCCC4)ncn3)c2C)c1 | – | > 50 µM (inactive) |
| Cc1sc2nc(CN3CCCC3)nc(NCCc3ccc(Cl)cc3)c2c1C | – | > 50 µM (inactive) |
| CC(=O)c1ccc(NC(=O)C[n+]2cc(-c3ccc(Cl)cc3)n3c2CCC3)cc1 | 4.49 | – |
| COc1ccc(OC)c(NC(=O)c2cc(Cl)ccc2OC)c1 | 5.60 | – |

| Compound | pIC50 | IC50 |
| --- | --- | --- |
| COc1cccc(NC(=O)Nc2ccc(CCc3nc4ccccc4[nH]3)cc2)c1 | 4.31 | – |
| Cc1cc(=O)n(C)c2c(O)c3c(cc12)c(C)cc(=O)n3C | 6.81 | – |
| CN1c2ccccc2CN(CC(N)=O)CC1Cc1ccccc1 (stereo not drawn) | – | > 50 µM (inactive) |
| CCCc1nc2c(sc3nc4c(cc32)COC(C)(C)C4)c(=O)n1CC(=O)Nc1ccccc1C | 4.49 | – |
| CC(=O)c1cccc(NC(=O)c2ccc(CN(c3ccc(C)c(C)c3)S(C)(=O)=O)cc2)c1 | – | > 50 µM (inactive) |
| CCOc1ccc(CCNC(=O)c2ccc3c(c2)N(CC)C(=O)c2ccccc2S3)cc1OCC | – | > 50 µM (inactive) |
| COc1cc(O)c2c(O)c3c(cc2c1)CC(C)OC3=O (stereo not drawn) | 5.20 | – |
| Cc1cccc(Cl)c1NC(=O)Nc1ccc(NC(=O)c2ccccc2O)cc1 | 4.45 | – |
| CN1C(=O)[C@]23CC4=CC=C[C@H](O)[C@H]4N2C(=O)[C@@]1(CO)SS3 | – | > 50 µM (inactive) |
| Cc1ccc(-n2c(=O)[nH]c3c(C(N)=O)nc(-c4cccnc4)nc32)cc1 | 5.36 | – |
| Cc1sc(-c2cccnc2)nc1OC(=O)c1ccc(Cl)c(Cl)c1 | – | > 50 µM (inactive) |
| COCCCNC(=O)c1ccc(Cn2c(=O)c3ccccc3n(CC(=O)NC3CCCCC3)c2=O)cc1 | 4.51 | – |
| COc1ccc(C2CC(=O)Nc3n[nH]c(-c4ccccc4)c32)cc1OC (stereo not drawn) | 4.53 | – |
| COc1ccc(NC(=O)CSc2nnc(Cc3cccc4ccccc34)n2C)cc1 | – | > 50 µM (inactive) |
| COC(=O)c1ccc(C(=O)Nc2cc3ccccc3cc2NC(=O)c2ccc(C(=O)OC)cc2)cc1 | 6.17 | – |
| O=S(=O)(c1ccccc1)N1CCN2Cc3ccccc3N(Cc3ccccc3)CC2C1 (stereo not drawn) | – | > 50 µM (inactive) |
| CCCc1nc2sc3c(NCc4ccco4)ncnc3c2c2c1CCC2 | – | > 50 µM (inactive) |
| Fc1ccc(-c2noc(-c3nnc(NCc4cccnc4)c4ccccc34)n2)cc1 | 5.59 | – |
| Cc1ccc(CNC(=O)Cn2cnc3c(cnn3-c3cccc(Cl)c3)c2=O)cc1 | 5.83 | – |
| Cn1c(=O)[nH]c2nncnc2c1=O | 5.14 | – |
| COc1ccccc1CNC(=O)CCCCn1c(=O)c2ccccc2n(Cc2ccccc2C#N)c1=O | 4.88 | – |
| Cc1ccc(-c2cn(CC(=O)N3CCN(c4ccccn4)CC3)c(=O)o2)cc1 | 4.89 | – |
| Cc1c(C)c2ccc(OCC(=O)NCc3ccncc3)c(C)c2oc1=O | 4.38 | – |
| O=C(NCc1ccc(CN2CCCC2)cc1)c1cc2ccccc2[nH]c1=O | 4.55 | – |
| Cc1cc(C)c2cc(C(=O)NC3CCN(Cc4ccccc4)CC3)[nH]c2c1 | 4.83 | – |

| Compound | pIC50 | IC50 |
| --- | --- | --- |
| CCc1ccc(NC(=O)Cc2nnc(-c3ccc4ncccc4c3)o2)cc1 | 4.45 | – |
| CCCCCCCc1cc(O)cc(OC(=O)c2c(CCCCCCC)cc(O)cc2O[C@H]2O[C@H](C(O)CO)[C@@H](O)[C@@H]2O)c1 (stereo partly drawn) | 4.47 | – |
| O=C(Cn1cc(C(=O)C(F)(F)F)c2ccccc21)N1CCc2ccccc21 | 5.46 | – |
| O=C1C[C@@H]2O[C@H](CNC(=O)[C@@H]3CN(CCN3C(=O)C3CCOCC3)C(=O)[C@@H]3C[C@@H](CN3Cc3ccc(F)c(F)c3)N1)[C@@H](O)[C@H]2O | – | > 50 µM (inactive) |
| CCCCN(C)C(=O)c1cc2c(=O)n3cccc(C)c3nc2n1Cc1ccccc1 | 4.40 | – |
| Cc1nc(-c2cccc(NC(=O)c3ccccc3Cl)c2)no1 | – | > 50 µM (inactive) |
| Cn1c(CCN2CCCC2)nc2cc(NC(=O)c3ccccc3)ccc21 | – | > 50 µM (inactive) |
| CCOc1ccc(NC(=O)Cn2c(=O)n(CCCCCC(=O)NCc3ccc(F)cc3)c(=O)c3sccc32)cc1 | 5.67 | – |
| O=[N+]([O-])c1ccc2c(c1)nc1n2CCN(Cc2ccco2)C1 | – | > 50 µM (inactive) |
| N#C/C(=C/c1sc(N2CCOCC2)nc1-c1ccccc1)c1ccccn1 | – | > 50 µM (inactive) |
| COc1ccccc1NS(=O)(=O)c1ccc2oc(SCC(=O)c3ccccc3)nc2c1 | – | > 50 µM (inactive) |
| CN(CCc1ccccc1)c1nccc(N2CCN(C(=O)c3csc(-c4cccnc4)n3)CC2)n1 | – | > 50 µM (inactive) |
| COc1ccc(-n2c(=O)c(CCC(=O)O)nc3ccccc32)cc1 | – | > 50 µM (inactive) |
| O=C(COc1ccc(Cl)cc1Cl)Nc1ccccc1-c1nc2ccccc2[nH]1 | 5.67 | – |
| Cn1c(-c2nnc(SCC(=O)NCCc3ccccc3)o2)cc2ccccc21 | 5.08 | – |
| Cc1ccc(-c2nc(-c3cccs3)cc(C(F)(F)F)c2C#N)cc1 | – | > 50 µM (inactive) |
| Cc1cccc(C(=O)Nc2cccc(SC(C(=O)Nc3ccc(O)c(C(=O)O)c3)c3ccccc3)c2)c1 (stereo not drawn) | 4.94 | – |
| CC1=C(Cn2c3cccc(=O)c-3nc3ccccc32)CCC(C)(C)C1 | 5.82 | – |
| Cn1cc(CCNC(=O)c2cc3ccccc3[nH]2)c2cccnc21 | – | > 50 µM (inactive) |
| Cc1cccc(OCCn2c(CCNC(=O)C3CCCCC3)nc3ccccc32)c1 | 4.54 | – |
| COc1ccccc1-c1nc(Cn2nnc(C(=O)Nc3cc(C)cc(C)c3)c2N)c(C)o1 | 4.65 | – |
| Cn1c(=O)/c(=C/c2ccccc2)[nH]c(=O)/c1=C/c1ccccc1 | 5.24 | – |
| COc1ccc(NC(=O)Nc2cccc(-c3nnc(-c4ccccc4)o3)c2)cc1OC | 4.96 | – |
| Cc1cc(C(=O)N2CC(C(=O)Nc3cc(C(F)(F)F)ccc3Cl)C2)no1 | 4.42 | – |
| O=C(/C=C/c1ccco1)c1cccc([N+](=O)[O-])c1 | 4.65 | – |

| Compound | pIC50 | IC50 |
| --- | --- | --- |
| COCCNC(=O)c1ccnn1-c1ccc2ccc(-c3cccnc3)cn12 | – | > 50 µM (inactive) |
| O=C(CCCCn1c(=O)c2ccccc2n(Cc2ccccc2F)c1=O)NCCc1ccccc1 | 4.77 | – |
| Cc1cc2nc(/C=C/c3ccccc3)n(Cc3cccc(F)c3)c2cc1C | – | > 50 µM (inactive) |
| COCCNC(=O)c1ccn(-c2ccc3ccc(-c4ccncc4)cn23)n1 | – | > 50 µM (inactive) |
| COc1cc(Cl)c(C)cc1NC(=O)Cn1c(=O)n(CC(=O)NCc2ccco2)c(=O)c2ccccc21 | 5.62 | – |
| O=C(Nc1ccc(Oc2cccc3cccnc23)cc1)c1cccs1 | – | > 50 µM (inactive) |
| C/C1=C\CCC(C)C(O)CC(O)C(C)C(O)CCC(C)C(O)CC2(O)OC(CC(OC(=O)CC(=O)O)CC(O)CC(O)CC(O)C(C)C(O)/C=C/C(C)C(C(C)CCCCCCCCN=C(N)N)OC1=O)CC(O)C2O (stereo not drawn) | – | > 50 µM (inactive) |
| CC1CCCCN1c1nc(F)c2c(c1F)S(=O)(=O)CCN2Cc1ccccc1 (stereo not drawn) | – | > 50 µM (inactive) |
| c1ccc(Cc2nn3c(-c4cccnc4)nnc3c3ccccc23)cc1 | 6.38 | – |
| O=C(Nc1ccc(F)cc1F)c1csc(-c2ccccc2)n1 | 4.41 | – |
| COc1ccc(OC)c2c(C)cc(N3CCN(S(=O)(=O)c4ccc5c(c4)CCCN5S(C)(=O)=O)CC3)nc12 | 5.01 | – |
| COc1cccc(OCCCn2c(C(C)NC(=O)c3ccco3)nc3ccccc32)c1 (stereo not drawn) | 4.48 | – |
| O=C(CSc1nnc(-c2ccncc2)n1Cc1ccccc1)c1ccc2[nH]c(O)cc2c1 | 5.39 | – |
| O=C(CN1C(=O)C2CCCC2=Nc2ccccc21)Nc1ccc(F)cc1F (stereo not drawn) | 4.49 | – |
| Cc1ccc(-n2c(-c3ccccc3)cn3c4c(=O)[nH]c(=O)n(C)c4nc23)cc1C | 6.54 | – |
| NS(=O)(=O)c1ccc(NC(=O)Cn2cnc3cc([N+](=O)[O-])ccc3c2=O)cc1 | 4.74 | – |
| CCOc1cc(C2C3=C(CC(C)(C)CC3=O)Nc3onc(C)c32)ccc1O (stereo not drawn) | 4.40 | – |
| COc1ccc(-c2nc(SCC(=O)Nc3ccc(Cl)cc3F)n[nH]2)cc1 | 4.32 | – |
| CC(C)Cc1cc(-c2nnc3sc(-c4ccco4)nn23)n[nH]1 | – | > 50 µM (inactive) |
| COc1ccc(NC(=O)c2nnc(C(=O)NCCN3CCCCCC3)s2)cc1 | 5.52 | – |
| COCCCn1c(C(=O)NCCc2ccccc2)cc2c(=O)n3cccc(C)c3nc21 | 4.54 | – |
| Cc1ccc(CN2CCCn3nc(C(=O)NCc4ccccc4C)cc3C2=O)cc1 | 4.40 | – |
| CCCc1nc2sc3c(NCCc4ccc(OC)c(OC)c4)ncnc3c2c2c1CCC2 | – | > 50 µM (inactive) |
